{"source": "patent US10561637B2", "about": "“Methods for treating angiogenesis related disorder” (KAOHSIUNG MEDICAL UNIVERSITY, priority 2017, dated 2020)", "key": {"human EPCs [1]": {"test_system": "human EPCs", "test": "Sulforhodamine B (SRB) cell proliferation assay in human EPCs", "format": "cell-based", "details": "48th hour", "protocol": "(§1) Mitella formosana (Hayata) Masam. is a perennial herb of Saxifragaceae, a native plant of Taiwan. In the present invention, three kinds of tannin compounds, PGG, tellimagrandin I, and tellimagrandin II, found in the compounds extracted from Mitella formosana by using Bioassay-guided fractionation, inhibited the proliferation of EPCs in a concentration dependent manner. […] The results of tube formation assay confirmed that these three compounds (10 μM) inhibited the tube formation of EPCs in different degrees (FIG. 2B). […] Importantly, CAM-angiogenesis model and mice Matrigel-plus model were used to verify the anti-angiogenic effect of tellimagrandin II in vivo."}, "human EPCs [2]": {"test_system": "human EPCs", "test": "tube formation assay (capillary-like structures) in human EPCs", "format": "cell-based", "details": "5 and 10 μM, 24 hours, phase-contrast microscope", "source_text": "The data of five independent experiments are expressed as the mean±mean standard deviation. As compared with the control group, * means p<0.05; *** means p<0.001.\nas §1"}, "human EPCs [3]": {"test_system": "human EPCs", "test": "lactate dehydrogenase (LDH) release assay in human EPCs", "format": "cell-based", "details": "10-20 μM, 24th hour", "source_text": "The data of five independent experiments are expressed as the mean±mean standard deviation. As compared with the control group, * means p<0.05; ** means p<0.05; *** means p<0.001.\nas §1"}, "chicken embryo": {"test_system": "chicken embryo", "test": "chorioallantoic membrane (CAM) angiogenesis assay", "format": "in vivo", "details": "CAM-angiogenesis model", "source_text": "(§2) Sorafenib is a multiple kinase inhibitor, which is used as a positive control in the in vivo anti-angiogenesis assay.\nas §1"}, "mice": {"test_system": "mice", "test": "Matrigel plug model of capillary formation", "format": "in vivo", "source_text": "as §2, §1"}}, "note": "Entries after “also recorded” stand apart in the source; their conditions may differ."}
{"compound": "O=C(OC[C@H]1O[C@@H](OC(=O)c2cc(O)c(O)c(O)c2)[C@H](OC(=O)c2cc(O)c(O)c(O)c2)[C@@H](OC(=O)c2cc(O)c(O)c(O)c2)[C@@H]1OC(=O)c1cc(O)c(O)c(O)c1)c1cc(O)c(O)c(O)c1", "note": "[PGG, 1,2,3,4,6-penta-O-galloyl-β-D-glucose]", "values": [{"measurement": "proliferation of EPCs", "setting": "human EPCs [1]", "value": "suppress the proliferation of EPCs in a concentration dependent manner"}, {"measurement": "tube formation of EPCs, concentration dependence", "setting": "human EPCs [2]", "value": "inhibited the tube formation of EPCs in a concentration dependent manner"}]}
{"compound": "O=C(OC1O[C@@H]2COC(=O)c3cc(O)c(O)c(O)c3-c3c(cc(O)c(O)c3O)C(=O)O[C@H]2[C@H](OC(=O)c2cc(O)c(O)c(O)c2)[C@H]1OC(=O)c1cc(O)c(O)c(O)c1)c1cc(O)c(O)c(O)c1", "note": "(some centres unmarked) [tellimagrandin II]", "values": [{"measurement": "proliferation of EPCs", "setting": "human EPCs [1]", "value": "suppress the proliferation of EPCs in a concentration dependent manner; also recorded: exhibited the most potent effect"}, {"measurement": "tube formation of EPCs, concentration dependence", "setting": "human EPCs [2]", "value": "inhibited the tube formation of EPCs in a concentration dependent manner"}, {"measurement": "LDH release (cytotoxicity)", "setting": "human EPCs [3]", "value": "LDH release was not induced"}, {"measurement": "in vivo neovascularization in the chicken embryo", "setting": "chicken embryo", "value": "inhibited in vivo neovascularization in the chicken embryo in a concentration dependent manner"}, {"measurement": "formation of capillaries in mice", "setting": "mice", "value": "effectively inhibited the formation of capillaries in mice"}]}
{"compound": "O=C(O[C@H]1[C@@H]2OC(=O)c3cc(O)c(O)c(O)c3-c3c(cc(O)c(O)c3O)C(=O)OC[C@H]2OC(O)[C@@H]1OC(=O)c1cc(O)c(O)c(O)c1)c1cc(O)c(O)c(O)c1", "note": "(some centres unmarked) [tellimagrandin I]", "values": [{"measurement": "proliferation of EPCs", "setting": "human EPCs [1]", "value": "suppress the proliferation of EPCs in a concentration dependent manner"}]}
